One data set concerns mice. Conditions: mouse.
The next data set deals with Mycobacterium avium 101. Briefly: In vivo efficacy in mice infected with Mycobacterium avium 101 (FIG. 2). Particulars: dosed orally with 25 mg/kg and 100 mg/kg.
A short description of the next data set: in vivo. Conditions: mouse, MTD (maximum tolerated dose).
For a further data set, the system named is M. avium. Put plainly: Murine MAC infection model, two week infection in Balb/c mice. Format: in vivo, Mycobacterium avium. Particulars: two week infection experiment, control. From the text:
AND CHEMOTHERAPY, 1995, 39(8), 1647-1654 for review of MAC infection model and Antimicrob Agents Chemother. 1992, 36(11):2413-7 for a typical experiment (done with clarithromycin).

Some results are limits rather than exact numbers.

Experimental for Mycobacterium avium 101: Panel A is the log 10 colony forming units (CFU) drop in bacteria in the lungs when treated with ND-10885 (at 25 and 100 mg/kg), rifampicin (RMP, 20 mg/kg) and a combination of ND-10885 (100 mg/kg) and rifampicin (20 mg/kg). Panel B is the log 10 colony forming units (CFU) drop in bacteria in the spleen when treated with ND-10885 (at 25 and 100 mg/kg), rifampicin (RMP, 20 mg/kg) and a combination of ND-10885 (100 mg/kg) and rifampicin (20 mg/kg). Panel C is the log 10 colony forming units (CFU) drop in bacteria in the liver when treated with ND-10885 (at 25 and 100 mg/kg), rifampicin (RMP, 20 mg/kg) and a combination of ND-10885 (100 mg/kg) and rifampicin (20 mg/kg).

Turning to `Cc1ccn2c(C(=O)NCc3ccc(S(F)(F)(F)(F)F)cc3)c(C)nc2c1`, the melting point lay in the range of 186 to 187 °C.

For the compound `CCc1nc2ccc(Cl)cn2c1C(=O)NCc1ccc(S(F)(F)(F)(F)F)cc1`, the melting point lay within 191 to 192 °C.

As to `Cc1ccc2nc(C)c(C(=O)NCc3ccc(S(F)(F)(F)(F)F)cc3)n2c1`, the melting point lay within 176 to 177 °C.

For the compound `Cc1ccn2c(C(=O)NCc3ccc(N4CCOCC4)cc3)c(C)nc2c1` [ND-10823], in the data set with mice, the “dose limiting toxicity / in vivo toxicity” value is 100 mg/kg.

Turning to `Cc1ccn2c(C(=O)NCc3ccc4c(c3)CCO4)c(C)nc2c1` [ND-10885], in the data set on Mycobacterium avium 101, the “in vivo efficacy (log 10 CFU drop in lungs, spleen, liver)” value is listed as “validate the in vivo efficacy”.

`Cc1ccn2c(C(=O)NCc3ccc(N4CCCN(c5ccc(C(F)(F)F)cc5)CC4)c(F)c3)c(C)nc2c1` [ND-11598] gave an MTD in “in vivo” of no less than 250 mg/kg.

Regarding `CCc1nc2ccc(Cl)cn2c1C(=O)NCc1ccc(N2CCSCC2)c(F)c1` [ND-11622], the MTD in the data set “in vivo” is no less than 250 mg/kg.

As for `CO[C@H]1/C=C/O[C@@]2(C)Oc3c(C)c(O)c4c(O)c(c(/C=N/N5CCN(C)CC5)c(O)c4c3C2=O)NC(=O)/C(C)=C\C=C\[C@H](C)[C@H](O)[C@@H](C)[C@@H](O)[C@@H](C)[C@H](OC(C)=O)[C@@H]1C` [rifampicin], the “log 10 CFU drop in the amount of M. avium in the lungs” value in the data set with M. avium worked out at 1.8 log 10 CFU.

These data come from patent US10919888B2, “Benzyl amine-containing heterocyclic compounds and compositions useful against mycobacterial infection” (priority 2015, dated 2021).
